Patent US12162858B2, “Quinoline derivatives as inhibitors of AXL/MER RTK and CSF1R” (QURIENT CO., LTD., priority 2018, dated 2024)

How the values were obtained:
Mer = target: T1, Mer (Homo sapiens, UniProt Q12866); test: LanthaScreen Eu kinase binding assay for Mer; conditions: read-out: Mer kinase binding activity (Kd)
T1 construct: purchased Life Technologies
T1 sequence (Q12866 21-999): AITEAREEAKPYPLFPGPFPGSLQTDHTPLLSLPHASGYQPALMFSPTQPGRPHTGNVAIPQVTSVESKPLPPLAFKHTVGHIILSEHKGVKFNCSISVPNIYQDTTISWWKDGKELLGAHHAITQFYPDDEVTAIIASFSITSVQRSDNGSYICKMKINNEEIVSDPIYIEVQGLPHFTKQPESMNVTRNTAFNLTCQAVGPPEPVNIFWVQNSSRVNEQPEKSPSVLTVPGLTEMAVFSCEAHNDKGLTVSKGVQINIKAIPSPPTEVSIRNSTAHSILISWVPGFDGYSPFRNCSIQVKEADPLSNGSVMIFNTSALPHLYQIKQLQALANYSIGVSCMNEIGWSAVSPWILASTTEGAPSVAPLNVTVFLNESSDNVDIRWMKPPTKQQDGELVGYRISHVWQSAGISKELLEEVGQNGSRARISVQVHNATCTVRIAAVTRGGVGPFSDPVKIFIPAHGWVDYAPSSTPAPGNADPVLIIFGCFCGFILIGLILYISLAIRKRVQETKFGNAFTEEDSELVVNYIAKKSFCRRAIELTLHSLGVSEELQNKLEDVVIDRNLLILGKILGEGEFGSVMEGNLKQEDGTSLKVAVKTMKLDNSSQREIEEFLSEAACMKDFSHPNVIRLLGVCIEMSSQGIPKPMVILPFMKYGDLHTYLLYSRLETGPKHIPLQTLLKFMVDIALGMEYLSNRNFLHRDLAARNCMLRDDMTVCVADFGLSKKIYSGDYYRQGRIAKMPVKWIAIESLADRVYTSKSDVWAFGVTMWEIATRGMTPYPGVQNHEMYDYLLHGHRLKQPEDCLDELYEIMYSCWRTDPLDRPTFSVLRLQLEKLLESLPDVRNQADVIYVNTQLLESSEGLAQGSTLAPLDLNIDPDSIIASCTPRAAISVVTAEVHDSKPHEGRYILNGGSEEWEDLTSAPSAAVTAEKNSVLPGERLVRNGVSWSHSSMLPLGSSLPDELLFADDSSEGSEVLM
Method in brief: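 Kd values come from control-normalized FRET loss, referenced to DMSO vehicle wells, after 1 h at room temperature. Each compound was serially diluted over eight steps in DMSO and competed against Tracer 236 (Alexa Fluor 647) for the kinase, which was tagged by a Eu anti-GST antibody.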

CSF1R (M-NFS-60 cells) = test: Cell Titer-Glo viability assay using M-NFS-60 cells; assay type: cell-based; conditions: Mus musculus, read-out: Cellular CSF1R activity by M-NFS-60 viability assay (IC50 activity range)
Method in brief: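 M-NFS-60 cells grown with 62 ng/ml recombinant human M-CSF, seeded at 2×10^5 cells/well and incubated at 37 °C/5% CO2. Compounds given as 3-fold serial dilutions (10 doses); viability read by CellTiter-Glo luminescence, sigmoidal dose-response fit.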

SMILES | Kd (Mer) [µM] | IC50 (CSF1R (M-NFS-60 cells)) [µM]
COc1cc2nccc(Oc3ccc(NC(=O)c4nn(CC5COC5)cc4OCC(F)(F)F)c(F)c3)c2cc1OC [Compound 95] | < 0.1 | 1 to 10
COc1cc2nccc(Oc3ccc(NC(=O)c4nn(C5CCOC5)cc4OCC(F)(F)F)cc3C)c2cc1OC (centres unmarked) [Compound 85] | < 0.1 | 1 to 10
COc1cc2nccc(Oc3ccc(NC(=O)c4nn(C5CCN(C)C5)cc4OCC(F)(F)F)c(F)c3)c2cc1OC (centres unmarked) [Compound 94] | < 0.1 | 1 to 10
COc1cc2nccc(Oc3ccc(NC(=O)c4nn(CCC5CCCC5)cc4OCC(F)(F)F)nc3)c2cc1OC [Compound 93] | < 0.1 | < 1
COc1cc2nccc(Oc3ccc(NC(=O)c4nn(CC(C)O)cc4OCC(F)(F)F)cc3C)c2cc1OC (centres unmarked) [Compound 83] | < 0.1 | 1 to 10
COc1cc2nccc(Oc3ccc(NC(=O)c4nn(CCN)cc4OCC(F)(F)F)cc3F)c2cc1OC [Compound 79] | < 0.1 | 1 to 10
COc1cc2nccc(Oc3ccc(NC(=O)c4nn(CCN)cc4OCC(F)(F)F)cc3)c2cc1OC [Compound 88] | 0.1 to 0.5 | 1 to 10
COc1cc2nccc(Oc3ccc(NC(=O)c4nn(C5CC5)cc4OCC(F)(F)F)nc3)c2cc1OC [Compound 5] | < 0.1 | < 1
COc1cc2nccc(Oc3ccc(NC(=O)c4nn(C5CCNC5)cc4OCC(F)(F)F)cc3C)c2cc1OC (centres unmarked) [Compound 81] | 0.1 to 0.5 | 1 to 10
COCCn1cc(OCC(F)(F)F)c(C(=O)Nc2ccc(Oc3ccnc4cc(OC)c(OC)cc34)c(C)c2)n1 [Compound 84] | < 0.1 | 1 to 10
COc1cc2nccc(Oc3ccc(NC(=O)c4nn(CC(C)C)cc4OCC(F)(F)F)cc3)c2cc1OC [Compound 87] | < 0.1 | 1 to 10
COc1cc2nccc(Oc3ccc(NC(=O)c4nn(C5CCNC5)cc4OCC(F)(F)F)cc3F)c2cc1OC (centres unmarked) [Compound 78] | 0.1 to 0.5 | 1 to 10
COc1cc2nccc(Oc3ccc(NC(=O)c4nn(CCN)cc4OCC(F)(F)F)cc3C)c2cc1OC [Compound 82] | 0.1 to 0.5 | 1 to 10
COc1cc2nccc(Oc3ccc(NC(=O)c4nn(C5CCNC5)cc4OCC(F)(F)F)cc3)c2cc1OC (centres unmarked) [Compound 86] | 0.1 to 0.5 | 1 to 10
COc1cc2nccc(Oc3ccc(NC(=O)c4nn(C5CCOCC5)cc4OCC(F)(F)F)nc3)c2cc1OC [Compound 90] | < 0.1 | < 1
COc1cc2nccc(Oc3ccc(NC(=O)c4nn(C5CCOC5)cc4OCC(F)(F)F)c(F)c3)c2cc1OC (centres unmarked) [Compound 77] | < 0.1 | 1 to 10
COc1cc2nccc(Oc3ccc(NC(=O)c4nn(CC(C)O)cc4OCC(F)(F)F)cc3F)c2cc1OC (centres unmarked) [Compound 80] | < 0.1 | 1 to 10
COc1cc2nccc(Oc3ccc(NC(=O)c4nn(CC(C)O)cc4OCC(F)(F)F)cc3)c2cc1OC (centres unmarked) [Compound 89] | < 0.1 | 1 to 10
COc1cc2nccc(Oc3ccc(NC(=O)c4nn(C5CCN(C)C5)cc4OCC(F)(F)F)nc3)c2cc1OC (centres unmarked) [Compound 91] | < 0.1 | < 1
